Test: On day 0 cells were seeded in 30 μL media into each well of 384-well cell culture plates. The seeding density was 8000 cells/well. On day 1, cells were treated with 30 nL DMSO or 30 nL of 3-fold serially DMSO-diluted compounds (10 points in duplicates with 1 μM as final top dose). Subsequently plates were incubated for 6 hours in a standard tissue culture incubator and equilibrated at room temperature for 15 minutes. Nanoluciferase activity was measured by adding 15 μL of freshly prepared Nano-Glo Luciferase Assay Reagent (Promega N1130), shaking the plates for 10 minutes and reading the bioluminescence using an EnVision reader.
Type: cell-based

Structure (SMILES) | IC50
COc1cc(-c2cn(C)c(=O)c3cnccc23)cc(OC)c1CN1CC(OCc2cn(-c3ccc4c(c3)C(=O)N(C3CCC(=O)NC3=O)C4=O)nn2)C1 (stereo not drawn) | in the range around 55 nM
COc1cc(-c2cn(C)c(=O)c3cnccc23)cc(OC)c1CN(C)CC12CC(C(=O)NCCOCCOCCNc3cccc4c3C(=O)N(C3CCC(=O)NC3=O)C4=O)(C1)C2 (stereo not drawn) | in the range around 550 nM
COc1cc(-c2cn(C)c(=O)c3cnccc23)cc(OC)c1CN(C)CC1CC2(C1)CN(C(=O)CCOCCOc1ccc3c(c1)C(=O)N(C1CCC(=O)NC1=O)C3=O)C2 (stereo not drawn) | in the range around 550 nM
COc1cc(-c2cn(C)c(=O)c3cnccc23)cc(OC)c1CN1CCC2(C1)CN(C(=O)CCOCCOc1ccc3c(c1)C(=O)N(C1CCC(=O)NC1=O)C3=O)C2 (stereo not drawn) | in the range around 55 nM
COc1cc(-c2cn(C)c(=O)c3cnccc23)cc(OC)c1CN1CCC2(C[C@H]2NC(=O)CCOCCOc2ccc3c(c2)C(=O)N(C2CCC(=O)NC2=O)C3=O)C1 (stereo partly drawn) | in the range around 550 nM
COc1cc(-c2cn(C)c(=O)c3cnccc23)cc(OC)c1CN1CCC2(CCN(C(=O)CCOCCOc3ccc4c(c3)C(=O)N(C3CCC(=O)NC3=O)C4=O)CC2)C1 (stereo not drawn) | in the range around 55 nM
COc1cc(-c2cn(C)c(=O)c3cnccc23)cc(OC)c1CN1CC(CC(=O)NCCCCCCCCNc2cccc3c2C(=O)N(C2CCC(=O)NC2=O)C3=O)C1 (stereo not drawn) | < 10 nM
COc1cc(-c2cn(C)c(=O)c3cnccc23)cc(OC)c1CN(C)C(=O)CCCCN1CCOC2(CCN(c3ccc4c(c3)C(=O)N(C3CCC(=O)NC3=O)C4=O)CC2)C1 (stereo not drawn) | < 10 nM
COc1cc(-c2cn(C)c(=O)c3cnccc23)cc(OC)c1CN(C)CC1CC12CCN(C(=O)CCOCCOc1cccc3c1C(=O)N(C1CCC(=O)NC1=O)C3=O)CC2 (stereo not drawn) | in the range around 55 nM
COc1cc(-c2cn(C)c(=O)c3cnccc23)cc(OC)c1CN1CCC2(CC1)CN(C(=O)COc1ccc3c(c1)C(=O)N(C1CCC(=O)NC1=O)C3=O)CCO2 (stereo not drawn) | in the range around 550 nM
COc1cc(-c2cn(C)c(=O)c3cnccc23)cc(OC)c1CN1CC(S(=O)(=O)NCCCCNc2ccc3c(c2)C(=O)N(C2CCC(=O)NC2=O)C3=O)C1 (stereo not drawn) | in the range around 55 nM
COc1cc(-c2cn(C)c(=O)c3cc(O)ccc23)cc(OC)c1CN1CCC2(CC1)CN(C(=O)CCCOc1cccc3c1C(=O)N(C1CCC(=O)NC1=O)C3=O)CCO2 (stereo not drawn) | in the range around 55 nM
COc1cc(-c2cn(C)c(=O)c3cnccc23)cc(OC)c1CN1CCC2(C[C@@H]2NC(=O)CCOCCOc2ccc3c(c2)C(=O)N(C2CCC(=O)NC2=O)C3=O)C1 (stereo partly drawn) | in the range around 55 nM
COc1cc(-c2cn(C)c(=O)c3cnccc23)cc(OC)c1CN1CCC12CCN(C(=O)CCOCCOc1cccc3c1C(=O)N(C1CCC(=O)NC1=O)C3=O)C2 (stereo not drawn) | in the range around 550 nM
COc1cc(-c2cn(C)c(=O)c3cnccc23)cc(OC)c1CN1CC(C)(C(=O)NCCCCCCCCNc2cccc3c2C(=O)N(C2CCC(=O)NC2=O)C3=O)C1 (stereo not drawn) | < 10 nM
COc1cc(-c2cn(C)c(=O)c3cnccc23)cc(OC)c1CN1CCC(OCc2cn(CCCCOc3ccc4c(c3)C(=O)N(C3CCC(=O)NC3=O)C4=O)nn2)CC1 (stereo not drawn) | in the range around 55 nM
COc1cc(-c2cn(C)c(=O)c3cnccc23)cc(OC)c1CN1CC2(C1)CN(C(=O)CCCCOc1cccc3c1C(=O)N(C1CCC(=O)NC1=O)C3=O)C2 (stereo not drawn) | < 10 nM
COc1cc(-c2cn(C)c(=O)c3cnccc23)cc(OC)c1CN1CC[C@H]1C(=O)NCCN(C)CCNc1cccc2c1C(=O)N(C1CCC(=O)NC1=O)C2=O (stereo partly drawn) | in the range around 550 nM
COc1cc(-c2cn(C)c(=O)c3cnccc23)cc(OC)c1CN1CC(C(=O)N(C)CCCCCCCCNc2cccc3c2C(=O)N(C2CCC(=O)NC2=O)C3=O)C1 (stereo not drawn) | < 10 nM

Structure (SMILES) | IC50
COc1cc(-c2cn(C)c(=O)c3cnccc23)cc(OC)c1CN(C)CC(=O)N1CCC(C2CCN(C(=O)COc3cccc4c3C(=O)N(C3CCC(=O)NC3=O)C4=O)CC2)CC1 (stereo not drawn) | in the range around 55 nM
COc1cc(-c2cn(C)c(=O)c3cnccc23)cc(OC)c1CN1CC(S(=O)(=O)NCCOCCOCCNc2cccc3c2C(=O)N(C2CCC(=O)NC2=O)C3=O)C1 (stereo not drawn) | < 10 nM
COc1cc(-c2cn(C)c(=O)c3cnccc23)cc(OC)c1CN1CC[C@H]1C(=O)NCCN(C)CCNC(=O)COc1ccc2c(c1)C(=O)N(C1CCC(=O)NC1=O)C2=O (stereo partly drawn) | > 1000 nM
COc1cc(-c2cn(C)c(=O)c3cnccc23)cc(OC)c1CN(C)Cc1cn(CCCOc2ccc3c(c2)C(=O)N(C2CCC(=O)NC2=O)C3=O)nn1 (stereo not drawn) | in the range around 550 nM
COc1cc(-c2cn(C)c(=O)c3cnccc23)cc(OC)c1CN(C)C12CC(C(=O)NCCOCCOCCNc3cccc4c3C(=O)N(C3CCC(=O)NC3=O)C4=O)(C1)C2 (stereo not drawn) | < 10 nM
COc1cc(-c2cn(C)c(=O)c3cnccc23)cc(OC)c1CN(C)Cc1cn(CCOc2ccc3c(c2)C(=O)N(C2CCC(=O)NC2=O)C3=O)nn1 (stereo not drawn) | in the range around 550 nM
COc1cc(-c2cn(C)c(=O)c3cnccc23)cc(OC)c1CN(C)C1CC2CN(C(=O)CCOCCOc3cccc4c3C(=O)N(C3CCC(=O)NC3=O)C4=O)CC2C1 (stereo not drawn) | in the range around 55 nM
COc1cc(-c2cn(C)c(=O)c3cnccc23)cc(OC)c1CN(C)C1CC2CC1CN2C(=O)CCOCCOc1ccc2c(c1)C(=O)N(C1CCC(=O)NC1=O)C2=O (stereo not drawn) | < 10 nM
COc1cc(-c2cn(C)c(=O)c3cnccc23)cc(OC)c1CN(C)CC12CC(NC(=O)CCOCCOCCNc3cccc4c3C(=O)N(C3CCC(=O)NC3=O)C4=O)(C1)C2 (stereo not drawn) | in the range around 550 nM
COc1cc(-c2cn(C)c(=O)c3cnccc23)cc(OC)c1CN1CCCC(OCc2cn(CCOc3ccc4c(c3)C(=O)N(C3CCC(=O)NC3=O)C4=O)nn2)C1 (stereo not drawn) | in the range around 55 nM
COc1cc(-c2cn(C)c(=O)c3cnccc23)cc(OC)c1CN1CC(C(=O)NCCS(=O)(=O)CCNc2cccc3c2C(=O)N(C2CCC(=O)NC2=O)C3=O)C1 (stereo not drawn) | in the range around 55 nM
COc1cc(-c2cn(C)c(=O)c3cnccc23)cc(OC)c1CN(C)CC1CC2(CCN(C(=O)CCOCCOc3cccc4c3C(=O)N(C3CCC(=O)NC3=O)C4=O)CC2)C1 (stereo not drawn) | in the range around 55 nM
COc1cc(-c2cn(C)c(=O)c3cnccc23)cc(OC)c1CN(C)C1CCC12CCN(C(=O)CCOCCOc1cccc3c1C(=O)N(C1CCC(=O)NC1=O)C3=O)CC2 (stereo not drawn) | in the range around 55 nM
COc1cc(-c2cn(C)c(=O)c3cnccc23)cc(OC)c1CN1CC2(CCC2NC(=O)CCOCCOc2ccc3c(c2)C(=O)N(C2CCC(=O)NC2=O)C3=O)C1 (stereo not drawn) | in the range around 550 nM
COc1cc(-c2cn(C)c(=O)c3cnccc23)cc(OC)c1CN1CCC2(CC1)CN(C(=O)CCOCCOc1cccc3c1C(=O)N(C1CCC(=O)NC1=O)C3=O)C2 (stereo not drawn) | in the range around 55 nM
COc1cc(-c2cn(C)c(=O)c3cnccc23)cc(OC)c1CN(C)C1CCC2CN(C(=O)CCOCCOc3cccc4c3C(=O)N(C3CCC(=O)NC3=O)C4=O)CC21 (stereo not drawn) | in the range around 55 nM
COc1cc(-c2cn(C)c(=O)c3cnccc23)cc(OC)c1CN(C)CCCOCCN1CCN(c2ccc3c(c2)C(=O)N(C2CCC(=O)NC2=O)C3=O)CC1 (stereo not drawn) | in the range around 55 nM
COc1cc(-c2cn(C)c(=O)c3cnccc23)cc(OC)c1CN(C)CC12CC(C(=O)NCCCCCNc3cccc4c3C(=O)N(C3CCC(=O)NC3=O)C4=O)(C1)C2 (stereo not drawn) | < 10 nM
COc1cc(-c2cn(C)c(=O)c3cnccc23)cc(OC)c1CN1CC(C(=O)N2CCC(C3CCN(C(=O)COc4cccc5c4C(=O)N(C4CCC(=O)NC4=O)C5=O)CC3)CC2)C1 (stereo not drawn) | < 10 nM

— ChEMBL document CHEMBL5729561, “Compounds and uses thereof” (2023)
